The subject of assay [1] is ssGPR55 wild-type. Description: GPR55-internalisation assay, wild-type (FACS). The settings on record: 10 µM soybean LPI. The assay is classed as cell-based, human. The method, then: HeLa cells were plated at 1.5 × 10^5 cells/well in six-well plates in their growth medium without antibiotics. Twenty-four hours later, the cells were transfected with 2.5 µg/well pcDNA3.1, or the mutants ssGPR55-K80A, ssGPR55-Q87A, or 1.25 µg/well (complemented with 1.25 µg/well empty vector) ssGPR55, using Lipofectamine 2000, according to the manufacturer instructions. The different cDNA amounts were necessary to reach equivalent plasma-membrane expression of the receptors, as the mutants were expressed at lower levels, as verified by FACS analyses, and in line with previous reports. […]
(§1) For the GPR55-internalisation assay, after stimulation, the HeLa cells were washed twice with cold HBSS^++, stained while adhered with the monoclonal anti-HA antibody (1:1000) in PBS plus 3% BSA for 1 h on ice, washed three times with cold PBS, incubated with the Alexa488-tagged anti-mouse antibody (1:800) in PBS plus 3% BSA for 45 min on ice. […] The collected cells were centrifuged at 300×g, suspended in PBS plus 3% BSA, and analysed by FACS.

The subject of assay [2] is ssGPR55-Q87A. As to the kind of experiment: GPR55-internalisation assay, Q87A mutant (FACS). The format is cell-based, human. Particulars: HeLa, 10 µM soybean LPI, 15 min, three independent experiments.
Source text: The construct of haemagglutinin (HA)-tagged human GPR55 in pcDNA3 (HA-GPR55) was a gift from Prof. K. Mackie, Indiana University, Bloomington, IN, USA [39], while the construct ss-3 × HA-GPR55 in pcDNA3.1 (ssGPR55) with a triple HA tag at the N-terminus and an optimised signal sequence (ss, derived from amino acids 1–33 of the human growth hormone: […]) for efficient surface expression was from Prof. A. Irving, Dundee University, UK [40]. For both constructs, mutations were introduced by site-directed mutagenesis using QuickChange kits (Stratagene, La Jolla, CA, USA), according to the manufacturer instructions. The primers for the K80A mutation were 5′-[…]-3′ and 5′-[…]-3′ (Tm, 70.6 °C), and for Q87A were 5′-[…]-3′ and 5′-[…]-3′ (Tm, 73.1 °C).
HeLa cells were plated at 1.5 × 10^5 cells/well in six-well plates in their growth medium without antibiotics. […]
as §1

The subject of assay [3] is RAW264.7 cells. Description: RANKL-induced transcription of osteoclastogenesis markers in RAW264.7 cells (real-time PCR). The assay is classed as cell-based, murine. In outline: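 RAW264.7 cells in α-MEM/10% FBS were treated with 15–30 ng/mL RANKL, refreshed every 48 h, with or without GPR55 ligands (e.g. 0.5 µM ML-191, 30 µM O1918, 1 µM LPI) or 150 nM peptide-P1. Marker mRNA was quantified by SYBR Green real-time PCR normalised to β2-microglobulin; Gpr55 was knocked down by siRNA where applied.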

As for lysophosphatidylinositol [LPI], the “time to plateau of LPI-induced internalisation” value in assay [1] (overexpressed ssGPR55 in HeLa cells) was 10 min. The “reduction of cell-surface level of receptor” value in assay [1] (ssGPR55 wild-type, HeLa, 15 min, three independent experiments) turned out to be 30%. Moreover, the “reduction of cell-surface level of receptor” value in assay [2] is listed as 15%. Further, in assay [3] (1 µM soybean LPI, 24 h), the “further stimulation of RANKL-induced Trap transcription” value was 0.2 -fold and the “increase in RANKL-induced Cathepsin-k mRNA” value was 1.4 -fold. For the same substance, in assay [3] (1 µM soybean LPI, 48 h), the “further stimulation of RANKL-induced Ctr transcription” value is given as 2.4 -fold, the “further stimulation of RANKL-induced Nfatc1 transcription” value was 1.1 -fold, the “further stimulation of RANKL-induced Trap transcription” value was 0.7 -fold and the “increase in RANKL-induced Cathepsin-k mRNA” value is 1.2 -fold. Moreover, in assay [3] (1 µM soybean LPI, 72 h), the “further stimulation of RANKL-induced Ctr transcription” value is given as 1.6 -fold, the “further stimulation of RANKL-induced Trap transcription” value was 0.7 -fold and the “modulation of RANKL-induced Cathepsin-k transcription” value is given as “no modulation”. The “effect on Mmp-9 transcription” value in assay [3] (1 µM soybean LPI, any of the times analysed) is listed as “no effects on Mmp-9 transcription”. Also, the “effect on osteoclastogenesis marker transcription after washout” value in assay [3] (LPI washout after the initial 24 h, data not shown) is given as “did not produce any significant effects”. Besides, the “RANKL-induced transcription of Ctr, si-NT versus si-GPR55 cells” value in assay [3] (RANKL 15 ng/mL, 72 h, 1 µM soybean LPI or 1 µM ML-184) was “similarly increased RANKL-induced transcription of Ctr only in precursor cells treated with non-targeting siRNAs, and not in those silenced for GPR55”.

For the origin of these results see publication PMC8073907, “Peptide targeting of lysophosphatidylinositol-sensing GPR55 for osteoclastogenesis tuning” (Cell Communication and Signaling : CCS, 2021).
